{"source": "ChEMBL document CHEMBL4376831", "about": "“Enhancing the Cell Permeability of Stapled Peptides with a Cyclic Cell-Penetrating Peptide” (J Med Chem, 2019)", "key": {"[1]": {"test_system": "SJSA-1", "conditions": "Homo sapiens"}, "[2]": {"target": "E3 ubiquitin-protein ligase Mdm2 (Homo sapiens, UniProt Q00987)", "sequence (Q00987 whole entry, the tested form may be a part)": "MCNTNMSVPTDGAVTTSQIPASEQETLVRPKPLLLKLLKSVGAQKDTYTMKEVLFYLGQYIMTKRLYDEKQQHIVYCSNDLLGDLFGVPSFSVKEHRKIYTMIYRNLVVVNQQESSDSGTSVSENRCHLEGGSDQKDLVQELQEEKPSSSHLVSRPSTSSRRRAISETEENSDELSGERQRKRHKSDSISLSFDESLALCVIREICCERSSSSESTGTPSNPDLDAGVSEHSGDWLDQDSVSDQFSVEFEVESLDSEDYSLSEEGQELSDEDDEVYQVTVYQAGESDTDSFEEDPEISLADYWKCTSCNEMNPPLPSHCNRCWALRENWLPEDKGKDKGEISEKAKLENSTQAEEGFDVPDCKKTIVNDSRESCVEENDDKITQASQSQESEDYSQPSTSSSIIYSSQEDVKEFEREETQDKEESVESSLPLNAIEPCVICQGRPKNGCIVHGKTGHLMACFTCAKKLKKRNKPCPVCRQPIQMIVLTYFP", "assay": "Displacement of TMR-labelled PDI from human GST tagged MDM2 (1 to 139 residues) expressed in Escherichia coli BL21 (DE3) cells preincuabted for 1 hr with TMR-labelled PDI followed by compound addition and measured after 1 hr by fluorescence polarization assay"}, "[3]": {"test_system": "HeLa", "assay": "Cytotoxicity against human HeLa cells incubated for 72 hrs using FAM-labeled compound by MTT assay", "assay_type": "cell-based"}, "[4]": {"test_system": "HeLa", "assay": "Induction of cell membrane disruption in human HeLa cells incubated for 4 hrs using FAM-labeled compound by LDH assay", "assay_type": "cell-based"}, "[5]": {"assay": "Half life in human serum at 100 uM measured up to 24 hrs by RP-HPLC analysis", "assay_type": "ADME, cell-free"}, "[6]": {"target": "T1, Catenin beta-1 (Homo sapiens) (UniProt P35222)", "T1 sequence (whole entry)": "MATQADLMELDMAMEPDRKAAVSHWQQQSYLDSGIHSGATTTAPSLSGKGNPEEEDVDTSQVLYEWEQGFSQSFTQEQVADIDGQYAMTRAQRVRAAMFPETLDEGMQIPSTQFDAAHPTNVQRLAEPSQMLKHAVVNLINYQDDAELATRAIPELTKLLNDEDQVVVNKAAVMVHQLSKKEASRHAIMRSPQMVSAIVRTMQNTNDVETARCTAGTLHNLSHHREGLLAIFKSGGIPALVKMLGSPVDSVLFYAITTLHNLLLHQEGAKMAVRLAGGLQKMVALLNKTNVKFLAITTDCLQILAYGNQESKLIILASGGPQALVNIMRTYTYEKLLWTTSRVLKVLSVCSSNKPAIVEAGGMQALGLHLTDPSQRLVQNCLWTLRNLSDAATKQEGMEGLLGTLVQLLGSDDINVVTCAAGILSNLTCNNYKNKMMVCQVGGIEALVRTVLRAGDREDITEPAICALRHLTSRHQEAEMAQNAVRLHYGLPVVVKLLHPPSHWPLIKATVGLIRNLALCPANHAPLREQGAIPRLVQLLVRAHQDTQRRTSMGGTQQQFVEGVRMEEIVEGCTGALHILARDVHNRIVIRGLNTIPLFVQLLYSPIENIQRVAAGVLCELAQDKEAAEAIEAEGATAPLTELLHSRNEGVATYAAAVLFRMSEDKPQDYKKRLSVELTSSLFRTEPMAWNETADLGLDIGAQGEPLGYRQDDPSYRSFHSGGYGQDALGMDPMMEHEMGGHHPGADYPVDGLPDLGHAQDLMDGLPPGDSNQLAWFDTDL", "assay": "Inhibition of beta-catenin in human HCT116 cells assessed as reduction in myc mRNA expression", "assay_type": "cell-based"}, "[7]": {"target": "T1, Catenin beta-1 (Homo sapiens)", "assay": "Inhibition of beta-catenin in human SW480 cells assessed as reduction in myc mRNA expression", "assay_type": "cell-based"}, "[8]": {"target": "T1, Catenin beta-1 (Homo sapiens)", "assay": "Inhibition of beta-catenin in human SW480 cells assessed as reduction in LGR5 protein expression", "assay_type": "cell-based"}, "[9]": {"test_system": "SW480", "assay": "Induction of cell membrane disruption in human SW480 cells up to 50 uM incubated for 4 hrs by LDH assay relative to control", "assay_type": "functional, cell-based"}, "[10]": {"target": "T1, Catenin beta-1 (Homo sapiens)", "assay": "Inhibition of beta-catenin in human HCT116 cells assessed as reduction in LGR5 protein expression", "assay_type": "cell-based"}, "[11]": {"target": "T1, Catenin beta-1 (Homo sapiens)", "assay": "Inhibition of beta-catenin in human SW480 cells assessed as reduction in LGR5 mRNA expression", "assay_type": "cell-based"}, "[12]": {"test_system": "MCF7", "assay": "Antiproliferative activity against human MCF7 cells up to 20 uM incubated for 72 hrs by MTT assay", "assay_type": "functional, cell-based"}, "[13]": {"target": "T1, Catenin beta-1 (Homo sapiens)", "assay": "Inhibition of beta-catenin in human HCT116 cells assessed as reduction in LGR5 mRNA expression", "assay_type": "cell-based"}, "[14]": {"target": "T1, Catenin beta-1 (Homo sapiens)", "assay": "Inhibition of beta-catenin in human HCT116 cells assessed as reduction in axin2 protein expression", "assay_type": "cell-based"}, "[15]": {"test_system": "SW480", "assay": "Antiproliferative activity against human SW480 cells incubated for 72 hrs by MTT assay", "assay_type": "functional, cell-based"}, "[16]": {"test_system": "SW480", "assay": "Antiproliferative activity against human SW480 cells incubated for 72 hrs by MTT assay relative to control", "assay_type": "functional"}, "[17]": {"target": "T1, Catenin beta-1 (Homo sapiens)", "assay": "Inhibition of beta-catenin in human HCT116 cells assessed as reduction in myc protein expression", "assay_type": "cell-based"}, "[18]": {"target": "T1, Catenin beta-1 (Homo sapiens)", "assay": "Inhibition of beta-catenin in human HCT116 cells assessed as reduction in axin2 mRNA expression", "assay_type": "cell-based"}, "[19]": {"target": "T1, Catenin beta-1 (Homo sapiens)", "assay": "Inhibition of beta-catenin in human SW480 cells assessed as reduction in myc protein expression", "assay_type": "cell-based"}, "[20]": {"target": "T1, Catenin beta-1 (Homo sapiens)", "assay": "Inhibition of beta-catenin in human SW480 cells assessed as reduction in axin2 mRNA expression", "assay_type": "cell-based"}, "[21]": {"test_system": "DLD-1", "assay": "Induction of apoptosis in human DLD1 cells at 25 uM incubated for 48 hrs by Annexin V/propidium iodide-staining based flow cytometric analysis relative to control", "assay_type": "functional"}, "[22]": {"test_system": "SW480", "assay": "Induction of apoptosis in human SW480 cells at 25 uM incubated for 48 hrs by Annexin V/propidium iodide-staining based flow cytometric analysis relative to control", "assay_type": "functional"}, "[23]": {"target": "T1, Catenin beta-1 (Homo sapiens)", "assay": "Inhibition of beta-catenin in human SW480 cells assessed as reduction in axin2 protein expression", "assay_type": "cell-based"}}, "note": "The source made the active and inactive calls. The calls are words filed in the database; no cut-off is given here. Where a SMILES comes first, the peptide text is derived from it. Bridges are numbered along the chain shown (N, C = ends). Roman numbers before positions name the chains, in order. [ ]: non-standard residue; d: D form. 2Nal = N[C@@H](Cc1ccc2ccccc2c1)C(=O)O; Dap = NC[C@H](N)C(=O)O; AEEA = NCCOCCOCC(=O)O"}
{"smiles": "CC(=O)N[C@@H](CC(C)C)C(=O)N[C@H](C(=O)N[C@@H](C)C(=O)N[C@H]1CC(=O)NCCCC[C@@H](C(=O)N[C@@H](CCC(N)=O)C(=O)N[C@@H](CC(C)C)C(=O)N[C@H](C(=O)N[C@@H](CO)C(=O)NCCOCCOCC(=O)N[C@@H](CCCCNC(=O)CC[C@@H]2NC(=O)[C@@H](CCCNC(=N)N)NC(=O)[C@H](CCCNC(=N)N)NC(=O)[C@@H](CCCNC(=N)N)NC(=O)[C@H](CCCNC(=N)N)NC(=O)[C@H](Cc3ccc4ccccc4c3)NC(=O)[C@@H](Cc3ccccc3)NC2=O)C(N)=O)[C@@H](C)O)NC(=O)[C@H](Cc2c[nH]c3ccccc23)NC(=O)[C@H](Cc2ccc(O)cc2)NC(=O)[C@H](Cc2cnc[nH]2)NC1=O)[C@@H](C)O", "values": [{"measurement": "Activity", "setting": "[1]", "result": "inactive"}, {"measurement": "IC50", "setting": "[2]", "result": "> 20", "unit": "µM"}, {"measurement": "Activity", "setting": "[3]", "result": "Toxic"}, {"measurement": "Activity", "setting": "[4]", "result": "Toxic"}]}
{"smiles": "CC[C@H](C)[C@@H]1NC(=O)[C@@H](NC(=O)[C@H](CCC(=O)O)NC(=O)[C@@H]2CCCN2C(=O)[C@H](Cc2ccc(O)cc2)NC(=O)CNC(=O)CNC(C)=O)CC(=O)NCCCC[C@@H](C(=O)N[C@@H](Cc2cnc[nH]2)C(=O)N[C@@H](CC(C)C)C(=O)N[C@@H](CCC(N)=O)C(=O)N[C@@H](CCCNC(=N)N)C(=O)N[C@H](C(=O)N[C@H](C(=O)N[C@@H](CC(C)C)C(=O)NCCOCCOCC(=O)NCCOCCOCC(=O)N[C@@H](CNC(=O)CC[C@@H]2NC(=O)[C@@H](CCCNC(=N)N)NC(=O)[C@H](CCCNC(=N)N)NC(=O)[C@@H](CCCNC(=N)N)NC(=O)[C@H](CCCNC(=N)N)NC(=O)[C@H](Cc3ccc4ccccc4c3)NC(=O)[C@@H](Cc3ccccc3)NC2=O)C(N)=O)[C@@H](C)CC)C(C)C)NC(=O)[C@H](CC(=O)O)NC(=O)[C@H](CC(C)C)NC1=O", "note": "(I: Ac-GGYPEDILDKHLQRVIL[AEEA][AEEA][Dap]-NH2 / II: cyclo([2Nal]R[dR]R[dR]E[dF]); lactam I:6-I:10; amide I:20-II:6)", "values": [{"measurement": "half-life at 100 µM", "setting": "[5]", "result": 2, "unit": "h"}, {"measurement": "inhibition", "setting": "[6]", "result": "Active"}, {"measurement": "inhibition", "setting": "[7]", "result": "Active"}, {"measurement": "inhibition", "setting": "[8]", "result": "Active"}, {"measurement": "Activity", "setting": "[9]", "result": "inactive"}, {"measurement": "inhibition", "setting": "[10]", "result": "Active"}, {"measurement": "inhibition", "setting": "[11]", "result": "Active"}, {"measurement": "Activity", "setting": "[12]", "result": "inactive"}, {"measurement": "inhibition", "setting": "[13]", "result": "Active"}, {"measurement": "inhibition", "setting": "[14]", "result": "Active"}, {"measurement": "Activity", "setting": "[15]", "result": "Dose-dependent effect"}, {"measurement": "EC50", "setting": "[15]; SW480, 72 h", "result": 1.2, "unit": "µM"}, {"measurement": "Activity", "setting": "[16]", "result": 60, "unit": "%"}, {"measurement": "inhibition", "setting": "[17]", "result": "Active"}, {"measurement": "inhibition", "setting": "[18]", "result": "Active"}, {"measurement": "inhibition", "setting": "[19]", "result": "Active"}, {"measurement": "inhibition", "setting": "[20]", "result": "Active"}, {"measurement": "Activity", "setting": "[21]", "result": 10, "unit": "%"}, {"measurement": "Activity", "setting": "[22]", "result": 10, "unit": "%"}, {"measurement": "inhibition", "setting": "[23]", "result": "Active"}]}
